{"source": "paper PMC10840477", "about": "(Acta Pharmaceutica Sinica. B, 2023)", "key": {"[1]": {"molecular_target": "P2Y12 (Homo sapiens, UniProt Q9H244)", "sequence (Q9H244 whole entry)": "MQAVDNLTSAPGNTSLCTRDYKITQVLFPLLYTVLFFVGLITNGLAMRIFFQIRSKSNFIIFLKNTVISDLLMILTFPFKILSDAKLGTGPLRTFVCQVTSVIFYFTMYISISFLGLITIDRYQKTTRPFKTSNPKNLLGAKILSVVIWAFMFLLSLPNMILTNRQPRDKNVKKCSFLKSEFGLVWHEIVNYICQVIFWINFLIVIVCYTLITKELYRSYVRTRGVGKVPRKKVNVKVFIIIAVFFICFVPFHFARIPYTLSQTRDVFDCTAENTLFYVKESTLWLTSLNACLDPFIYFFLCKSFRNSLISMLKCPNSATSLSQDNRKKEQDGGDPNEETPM", "assay": "P2Y12 β-Arrestin recruitment assay", "type": "cell-based", "settings": "at similar concentrations as TP1; antagonist mode, n = 2"}, "[2]": {"test_system": "ICR mice", "assay": "In vivo acute pulmonary thrombosis", "set-up": "species or system mouse", "settings": "three days, positive control"}, "[3]": {"test_system": "ICR mice", "assay": "Forced swimming test", "type": "in vivo, mouse", "settings": "p.o. 20 mg/kg, positive control, final 4 min of 6 min test"}, "[4]": {"test_system": "ICR mice", "assay": "Tail suspension test", "type": "in vivo, mouse", "settings": "p.o. 20 mg/kg, positive control, final 4 min of 6 min test"}}}
{"smiles": "CC(C)=CCC[C@](C)(O[C@@H]1O[C@H](CO[C@@H]2O[C@H](CO)[C@@H](O)[C@H](O)[C@H]2O)[C@@H](O)[C@H](O)[C@H]1O)[C@H]1CC[C@]2(C)[C@@H]1[C@H](O)C[C@@H]1[C@@]3(C)CC[C@H](O[C@@H]4O[C@H](CO)[C@@H](O)[C@H](O)[C@H]4O[C@@H]4O[C@H](CO)[C@@H](O)[C@H](O)[C@H]4O)C(C)(C)[C@@H]3CC[C@]12C", "note": "[ginsenoside Rb1]", "values": [{"measurement": "Inhibitory effects against P2Y12 activation", "setting": "[1]", "value": "did not display inhibitory effects"}]}
{"smiles": "COC(=O)[C@H](c1ccccc1Cl)N1CCc2sccc2C1", "note": "[clopidogrel]", "values": [{"measurement": "Thrombus formation in the lung, effect relative to ginsentide TP1", "setting": "[2]; oral clopidogrel 50 mg/kg", "value": "comparable"}]}
{"smiles": "CNCCC(Oc1ccc(C(F)(F)F)cc1)c1ccccc1", "note": "(stereo not drawn) [fluoxetine]", "values": [{"measurement": "Decrease of immobility time, forced swimming test", "setting": "[3]", "value": "42.52 ± 9.96", "unit": "s"}, {"measurement": "Decrease of immobility time, tail suspension test", "setting": "[4]", "value": "30.01 ± 7.22", "unit": "s"}]}
{"smiles": "CC(=O)Oc1ccccc1C(=O)O", "note": "[aspirin]", "values": [{"measurement": "Thrombus formation in the lung, effect relative to ginsentide TP1", "setting": "[2]; oral aspirin 100 mg/kg", "value": "comparable"}]}
{"smiles": "CC(C)=CCC[C@](C)(O[C@@H]1O[C@H](CO)[C@@H](O)[C@H](O)[C@H]1O)[C@H]1CC[C@]2(C)[C@@H]1[C@H](O)C[C@@H]1[C@@]3(C)CC[C@H](O)C(C)(C)[C@@H]3[C@@H](O[C@@H]3O[C@H](CO)[C@@H](O)[C@H](O)[C@H]3O)C[C@]12C", "note": "[ginsenoside Rg1]", "values": [{"measurement": "Inhibitory effects against P2Y12 activation", "setting": "[1]", "value": "did not display inhibitory effects"}]}
